Structures are written as SMILES.

The values that follow come from patent publication US6255347A (priority 1997, dated 2001).

One assay relates to NIH 3T3 cells. Nature of the assay: Foci formation assay, inhibition of PMA induced neoplastic transformation of NIH 3T3 cells. It counts as cell-based. The following applies: PMA 0.02 μg/ml, 2% FBS, 6 weeks. The method, then: (§1) NIH 3T3 cells (American Type Culture Collection, Rockville, Md.) were cultured in DMEM supplemented with 10% FBS inoculated at 10^4 cells/35 […] dish. […] PMA and ibuprofen were dissolved in DMSO and stored in 5% DMSO stock solutions that were diluted a 1000-fold with culture media prior to use. […] The media containing freshly added PMA and ibuprofen were changed every 60 hours for both the foci formation assay and PKCα analysis by Western blot.
Subsequent to washing with a tris/ saline buffer, the cells were stained with a solution of 4% aqueous Giemsa stain in phosphate buffer (pH 7.0). Foci of transformed cells were then visible by eye due to their high local density and verified by under light microscopy.

For the next assay, the system named is PKCα. Put plainly: PKCα translocation in NIH 3T3 cells (subcellular fractionation, Western blot). The settings on record: for PKCα localization: PMA 0.02 μg/ml, 2% FBS. It counts as cell-based. The procedure: as §1
The cells were washed twice with phosphate-buffered saline (PBS) at 37° C. and subsequently lysed and scraped in 1 ml ice-cold protein lysis buffer (20 mM Tris-HCl, pH7.4, 2 mM EGTA, 2 mM EDTA, […] leupeptin and […] aprotinin) at 4° C. […] Briefly, cells were homogenized 10× in 15 ml glass homogenizer with a tight-fitting pestle and centrifuged at 900×g for 10 min. The resulting supernatant was then centrifuged at 100,000×g for 60 min to produce a nucleus-free membrane fraction (pellet) and a cytosol fraction (supernatant) for Western blots. The 900×g nuclear pellet was suspended in the 2 ml lysis buffer containing 10% sucrose and 0.1% Triton X-100 and washed twice by centrifuging at 1000×g for 10 min, then resuspended in 1 ml of the same buffer without Triton X-100 for Western blots. The purity of the fractions was monitored by light microscopy. […] The samples were stored at -70° C. until analysis.
15 μl of human plasma, 15 μl of rat plasma, CSF or 50 μg of rat brain protein were denatured with 35 μl of sample buffer at 95° C. for 4 min. Denatured proteins were separated by 10% SDS-polyacrylamide gel electrophoresis with a 50 μg or 20 μg protein load for each sample for APPs or PKC, respectively, and electrophoretically transferred from gel to nitrocellulose membrane. […] The immunoreactive bands were developed using enhanced chemilumenescence (ECL. Amersham Life Sci., Little Chalfont, UK), following extensive washing with the blocking buffer. The PKC bands were verified in each case by competitively blocking the signal with the peptide corresponding to each of PKCs. The bands were quantitated by scanning densitometry. Quantitative comparisons were made between samples processed simultaneously on one blot.

Assay [1] deals with c-jun expression in NIH 3T3 cells. The following applies: cited from earlier work.

Take `CCCCCCCCCCCCCC(=O)O[C@@H]1[C@@H](C)[C@@]2(O)[C@@H](C=C(CO)C[C@]3(O)C(=O)C(C)=C[C@@H]23)[C@@H]2C(C)(C)[C@]12OC(C)=O` [PMA, phorbol 12-myristate 13-acetate]: the “dish area occupied by foci” value in the assay with NIH 3T3 cells was “over 50%”. Moreover, the PKCα localization entry is “translocation from cytosol to membrane fractions, but interestingly translocation to the nuclear compartment was absent” in the assay on PKCα (2 weeks); “translocation of PKCα to the membrane fraction and some indication of PKCα appearing in the nuclear fraction” in the assay with PKCα (30 min); “clear association of PKCα with the nuclear fraction” in the assay on PKCα (4 hours); “remained at 18 hours despite its disappearance from the membrane and cytosolic fractions” in the assay on PKCα (18 hours); “cytosolic PKCα had been regenerated but membrane and nuclear sites were not” with PKCα (48 hours). Moreover, in the assay with PKCα (reduced media FBS plus PMA 0.02 μg/ml, 4 to 18 hours), the PKCα translocation result is “significant translocation of PKCα to both nuclear and microsomal membranes”. The c-jun expression entry in assay [1] is on record as “transiently induces c-jun expression”.
